Among the data in patent publication US12180185B2, “Compound as protein kinase inhibitor, and pharmaceutical composition comprising thereof” (HK INNO.N Corporation, priority 2018, dated 2024) are IC50 values, retold here.

JAK1, sequence (P23458 whole entry): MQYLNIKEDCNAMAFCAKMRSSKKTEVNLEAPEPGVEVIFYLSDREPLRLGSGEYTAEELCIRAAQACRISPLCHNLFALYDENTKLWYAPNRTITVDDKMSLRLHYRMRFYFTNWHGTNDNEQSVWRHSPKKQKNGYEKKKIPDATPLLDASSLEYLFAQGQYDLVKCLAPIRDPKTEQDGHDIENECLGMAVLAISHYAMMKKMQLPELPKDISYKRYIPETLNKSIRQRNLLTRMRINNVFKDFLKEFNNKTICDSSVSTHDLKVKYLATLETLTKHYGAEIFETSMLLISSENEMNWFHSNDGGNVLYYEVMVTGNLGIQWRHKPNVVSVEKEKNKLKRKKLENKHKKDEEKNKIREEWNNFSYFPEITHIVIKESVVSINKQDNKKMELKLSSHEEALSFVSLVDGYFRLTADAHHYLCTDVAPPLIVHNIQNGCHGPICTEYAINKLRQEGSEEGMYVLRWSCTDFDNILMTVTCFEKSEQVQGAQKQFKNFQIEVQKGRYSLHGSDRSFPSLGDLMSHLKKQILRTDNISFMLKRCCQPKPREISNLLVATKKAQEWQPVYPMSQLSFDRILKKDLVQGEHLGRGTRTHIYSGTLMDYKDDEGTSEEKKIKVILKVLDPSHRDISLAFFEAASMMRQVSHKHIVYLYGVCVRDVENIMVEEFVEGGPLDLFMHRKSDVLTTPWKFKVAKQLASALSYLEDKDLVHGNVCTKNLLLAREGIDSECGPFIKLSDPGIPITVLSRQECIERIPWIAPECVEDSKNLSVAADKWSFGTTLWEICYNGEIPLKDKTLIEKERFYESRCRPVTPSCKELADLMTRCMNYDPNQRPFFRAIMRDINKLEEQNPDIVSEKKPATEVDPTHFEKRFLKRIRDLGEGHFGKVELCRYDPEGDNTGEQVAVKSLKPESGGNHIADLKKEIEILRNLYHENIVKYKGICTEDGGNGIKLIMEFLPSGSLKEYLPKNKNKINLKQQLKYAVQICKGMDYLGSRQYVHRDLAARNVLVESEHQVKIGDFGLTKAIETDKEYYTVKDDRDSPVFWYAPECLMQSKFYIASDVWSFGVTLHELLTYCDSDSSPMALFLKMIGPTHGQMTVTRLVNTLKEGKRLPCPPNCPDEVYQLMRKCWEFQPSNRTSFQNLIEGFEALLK

This test deals with JAK1 (Homo sapiens (Human), UniProt P23458). Description: Analysis of JAK1 activity inhibitory capacity (ADP-Glo Kinase assay). Type of test: biochemical. The following applies: JAK1 enzyme, ATP 250 uM, IRS-1tide substrate, 30° C. 40 minutes, luminescence. As for the experimental part:
Experimental Example 1: Analysis of JAK1 activity inhibitory capacity (ADP-Glo™ Kinase assay)
An inhibitory effect of the inventive compound on JAK was identified as follows.
A control material and a test material were prepared through dilution at each concentration by using DMSO. At the same time, ATP (250 uM) and JAK's substrate (JAK1, IRS-1tide 40 ng/mL) were prepared through dilution in kinase buffer (40 mM Tris-HCl pH 7.5, 20 mM MgCl2, 0.5 mg/mL BSA, 50 uM DTT).
A test drug for each concentration, the substrate, the ATP and JAK enzymes were mixed in an eppendorf tube, and then subjected to reaction in an incubator at 30° C. for 40 minutes.
ADP-Glo ? reagent included in ADP-Glo™ Kinase Enzyme System (Promega, USA, V9571) was added to each eppendorf tube, and then subjected to reaction in the incubator at 30° C. for 40 minutes.
A kinase detection reagent included in the ADP-Glo™ Kinase Enzyme System was inserted into the eppendorf tube, after which luminescence was measured by using Wallac Victor 2TM with an integration time set to 1 second, such that an inhibitory capacity of the test material on JAKs phosphorylation was analyzed. A concentration of the compound, at which JAK enzyme activity inhibition occurs 50% compared to the control group, was determined as IC50 (nM) of an inhibitor.
Take `O=C(NCC(F)(F)F)Nc1cccc2c(-c3ccnc(NC(=O)C4CC4)c3)cn(C(=O)NCC(F)(F)F)c12` [Example 37, 3-(2-(cyclopropanecarboxamido)pyridin-4-yl)-N-(2,2,2-trifluoroethyl)-7-(3-(2,2,2-trifluoroethyl)ureido)-1H-indole-1-carboxamide]: the 50% inhibitory concentration (IC50) (as a rule, the midpoint of a concentration-inhibition curve) is above 1000 nM.
In turn, `CC(C#N)C(=O)Nc1cccc2c1ccn2-c1ccnc(NC(=O)C2CC2)c1` (centres unmarked) [Example 54, N-(4-(4-(2-cyanopropanamido)-1H-indol-1-yl)pyridin-2-yl)cyclopropanecarboxamide] showed an IC50 of 100 to 1000 nM.
For `O=C(Nc1cccc2c1ccn2-c1ccnc(NC(=O)C2CC2)c1)c1cc[nH]n1` [Example 55, N-(1-(2-(cyclopropanecarboxamido)pyridin-4-yl)-1H-indol-4-yl)-1H-pyrazole-3-carboxamide] the value was above 1000 nM; for `Cc1ccc(C(=O)Nc2cccc3c(-c4ccnc(NC(=O)C5CC5)c4)c[nH]c23)cn1` [Example 28, N-(3-(2-(cyclopropanecarboxamido)pyridin-4-yl)-1H-indol-7-yl)-6-methylnicotinamide], below 100 nM.
In turn, `Cn1cccc(C(=O)Nc2cccc3c(-c4ccnc(NC(=O)C5CC5)c4)c[nH]c23)c1=O` [Example 34, N-(3-(2-(cyclopropanecarboxamido)pyridin-4-yl)-1H-indol-7-yl)-1-methyl-2-oxo-1,2-dihydropyridine-3-carboxamide] registered an IC50 of 100 to 1000 nM.
For `CC(C)=C(C#N)C(=O)Nc1cc(C)cc2c(-c3ccnc(NC(=O)C4CC4)c3)c[nH]c12` [Example 15, N-(4-(7-(2-cyano-3-methylbut-2-enamido)-5-methyl-1H-indol-3-yl)pyridin-2-yl)cyclo propanecarboxamide] the value was 100 to 1000 nM; for `O=C(Nc1cccc2c(-c3ccnc(NC(=O)C4CC4)c3)c[nH]c12)c1ccnc(F)c1` [Example 4, N-(3-(2-(cyclopropanecarboxamido)pyridin-4-yl)-1H-indol-7-yl)-2-fluoroisonicotinamide], below 100 nM.
Compound `CC(C(=O)Nc1cccc2c(-c3ccnc(NC(=O)C4CC4)c3)c[nH]c12)N1CCN(C)CC1` (centres unmarked) [Example 18, N-(4-(7-(2-(4-methylpiperazin-1-yl)propanamido)-1H-indol-3-yl)pyridin-2-yl)cyclopropanecarboxamide] displayed an IC50 of 100 to 1000 nM.
For `CC(C)=C(C)C(=O)Nc1cccc2c1ccn2-c1ccnc(NC(=O)C2CC2)c1` [Example 60, N-(4-(4-(2,3-dimethylbut-2-enamido)-1H-indol-1-yl)pyridin-2-yl)cyclopropanecarboxamide] the value was above 1000 nM; for `O=C(Nc1cccc2c(-c3ccnc(NC(=O)C4CC4)c3)c[nH]c12)c1ccc(Cl)nc1` [Example 32, 6-chloro-N-(3-(2-(cyclopropanecarboxamido)pyridin-4-yl)-1H-indol-7-yl)nicotinamide], 100 to 1000 nM.
As for `N#CC1(C(=O)Nc2cccc3c2ccn3-c2ccnc(NC(=O)C3CC3)c2)CCOCC1` [Example 50, 4-cyano-N-(1-(2-(cyclopropanecarboxamido)pyridin-4-yl)-1H-indol-4-yl)tetrahydro-2H-pyran-4-carboxamide], the figure is above 1000 nM; as for `O=C(Nc1cccc2c1ccn2-c1ccnc(NC(=O)C2CC2)c1)c1cc(F)cc(F)c1` [Example 44, N-(1-(2-(cyclopropanecarboxamido)pyridin-4-yl)-1H-indol-4-yl)-3,5-difluorobenzamide], above 1000 nM.
The compound `N#C/C(=C\c1ccccc1)C(=O)Nc1cccc2c1ccn2-c1ccnc(NC(=O)C2CC2)c1` [Example 48, N-(4-(4-(2-cyano-3-phenylacrylamido)-1H-indol-1-yl)pyridin-2-yl)cyclopropanecarboxamide] gave an IC50 above 1000 nM.
As for `N#CC1(CC(=O)Nc2cccc3c(-c4ccnc(NC(=O)C5CC5)c4)c[nH]c23)CC1` [Example 13, N-(4-(7-(2-(l-cyanocyclopropyl)acetamido)-1H-indol-3-yl)pyridin-2-yl)cyclopropanecarboxamide], the figure is 100 to 1000 nM; as for `Cc1ncc(C(=O)Nc2cccc3c2ccn3-c2ccnc(NC(=O)C3CC3)c2)s1` [Example 43, N-(1-(2-(cyclopropanecarboxamido)pyridin-4-yl)-1H-indol-4-yl)-2-methylthiazole-5-carboxamide], above 1000 nM.
As for `COc1cc(-c2c[nH]c3c(NC(=O)C(C#N)=C(C)C)cccc23)cc(NC(=O)C2CC2)n1` [Example 19, N-(4-(7-(2-cyano-3-methylbut-2-enamido)-1H-indol-3-yl)-6-methoxypyridin-2-yl)cyclopropanecarboxamide], the figure is above 1000 nM; as for `CC(C)=C(C)C(=O)Nc1cccc2c(-c3ccnc(NC(=O)C4CC4)c3)c[nH]c12` [Example 17, N-(4-(7-(2,3-dimethylbut-2-enamido)-1H-indol-3-yl)pyridin-2-yl)cyclopropanecarboxamide], 100 to 1000 nM; as for `CC(C)=C(C#N)C(=O)Nc1cccc2c(-c3cc(NC(=O)C4CC4)ncc3C)c[nH]c12` [Example 12, N-(4-(7-(2-cyano-3-methylbut-2-enamido)-1H-indol-3-yl)-5-methylpyridin-2-yl)cyclopropanecarboxamide], above 1000 nM.
For `N#C/C(=C\c1cccs1)C(=O)Nc1cccc2c(-c3ccnc(NC(=O)C4CC4)c3)c[nH]c12` [Example 25, (E)-N-(4-(7-(2-cyano-3-(thiophen-2-yl)acrylamido)-1H-indol-3-yl)pyridin-2-yl)cyclopropanecarboxamide] the value was 100 to 1000 nM; for `CC(C)=C(C#N)C(=O)Nc1cccc2c(-c3ccnc(NC(=O)C4CC4)c3)c[nH]c12` [Example 1, N-(4-(7-(2-cyano-3-methylbut-2-enamido)-1H-indol-3-yl)pyridin-2-yl)cyclopropanec arboxamide], below 100 nM.
Consider `CC(C)=C(C#N)C(=O)Nc1cccc2c(-c3cc(C)nc(NC(=O)C4CC4)c3)c[nH]c12` [Example 9, N-(4-(7-(2-cyano-3-methylbut-2-enamido)-1H-indol-3-yl)-6-methylpyridin-2-yl)cyclopropanecarboxamide], for which the IC50 was above 1000 nM.
As for `N#C/C(=C\c1ccccc1)C(=O)Nc1cccc2c(-c3ccnc(NC(=O)C4CC4)c3)c[nH]c12` [Example 22, (E)-N-(4-(7-(2-cyano-3-phenylacrylamido)-1H-indol-3-yl)pyridin-2-yl)cyclopropanecarboxamide], the figure is 100 to 1000 nM; as for `Cn1c(C(=O)Nc2cccc3c2ccn3-c2ccnc(NC(=O)C3CC3)c2)cc2ccccc21` [Example 49, N-(1-(2-(cyclopropanecarboxamido)pyridin-4-yl)-1H-indol-4-yl)-1-methyl-1H-indole-2-carboxamide], above 1000 nM.
As for `O=C(NCC(F)(F)F)Nc1cccc2c1ccn2-c1ccnc(NC(=O)C2CC2)c1` [Example 62, N-(4-(4-(3-(2,2,2-trifluoroethyl)ureido)-1H-indol-1-yl)pyridin-2-yl)cyclopropanecarboxamide], the figure is below 100 nM.
As for `COc1cc(-c2c[nH]c3c(NC(=O)CC#N)cccc23)cc(NC(=O)C2CC2)n1` [Example 20, N-(4-(7-(2-cyanoacetamido)-1H-indol-3-yl)-6-methoxypyridin-2-yl)cyclopropanecarboxamide], the figure is above 1000 nM.
`CC(C)=C(C#N)C(=O)Nc1cccc2c1ccn2-c1ccnc(NC(=O)C2CC2)c1` [Example 40, N-(4-(4-(2-cyano-3-methylbut-2-enamido)-1H-indol-1-yl)pyridin-2-yl)cyclopropanecarboxamide]: the IC50 lay in the range of 100 to 1000 nM.
As for `Cc1ccncc1C(=O)Nc1cccc2c(-c3ccnc(NC(=O)C4CC4)c3)c[nH]c12` [Example 24, N-(3-(2-(cyclopropanecarboxamido)pyridin-4-yl)-1H-indol-7-yl)-4-methylnicotinamide], the figure is below 100 nM; as for `CC(C)=C(C#N)C(=O)Nc1cccc2c(-c3ccnc(NC(=O)C4CC4)c3)cn(C)c12` [Example 26, N-(4-(7-(2-cyano-3-methylbut-2-enamido)-1-methyl-1H-indol-3-yl)pyridin-2-yl)cyclopropanecarboxamide], above 1000 nM.
For `CCCC(=O)Nc1cccc2c(-c3ccnc(NC(=O)C4CC4)c3)c[nH]c12` [Example 7, N-(4-(7-butyramido-1H-indol-3-yl)pyridin-2-yl)cyclopropanecarboxamide] the value was below 100 nM; for `O=C(Nc1cccc2c(-c3ccnc(NC(=O)C4CC4)c3)c[nH]c12)c1ccc(C(F)(F)F)nc1` [Example 29, N-(3-(2-(cyclopropanecarboxamido)pyridin-4-yl)-1H-indol-7-yl)-6-(trifluoromethyl) nicotinamide], 100 to 1000 nM.
For `N#CCC(=O)Nc1cccc2c1ccn2-c1ccnc(NC(=O)C2CC2)c1` [Example 41, N-(4-(4-(2-cyanoacetamido)-1H-indol-1-yl)pyridin-2-yl)cyclopropanecarboxamide] the value was 100 to 1000 nM.
Turning to `N#C/C(=C/c1cccs1)C(=O)Nc1cccc2c1ccn2-c1ccnc(NC(=O)C2CC2)c1` [Example 46, N-(4-(4-(2-cyano-3-(thiophen-2-yl)acrylamido)-1H-indol-1-yl)pyridin-2-yl)cyclopropanecarboxamide], the IC50 was above 1000 nM.
